Drawing on PubChem BioAssay (NCI), this text covers TGI for 40 compounds.

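Step 1: Grow cells in 96-well plates. Step 2: Expose to compound for 48 hours at 5 concentrations. Step 3: Interpolate endpoints linearly; if unreached, use highest concentration. TGI denotes the concentration required for complete inhibition of growth.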

Common to all, as to assay: NCI tumour cell line growth inhibition, 48 h
The subject of test [1] is UACC-62 melanoma.
Test [2] has as its system UO-31 renal.
Test [3] has as its system OVCAR-4 ovarian.
For test [4], the system named is K-562 leukemia.
Test [5] concerns SK-OV-3 ovarian.
The test system of test [6] is HCT-116 colon.
Test [7] has as its system M14 melanoma.

In the case of `FC(F)(F)c1ccc2c(-c3cc[nH]c3)ccnc2c1`, the TGI is over 100 µM in test [1]; 48.3 µM in test [2]; over 100 µM in test [3]; over 100 µM in test [4]; over 100 µM in test [5]; over 100 µM in test [6]. Further, the TGI in test [7] was over 100 µM.

`CCC1C(NC(=O)OC)C(=O)N1[C@@H](C)c1ccccc1` (stereo not given in full): the TGI in test [1], in test [2], in test [3], in test [4], in test [5] and in test [6] was over 100 µM in each case. This compound gave a TGI in test [7] of over 100 µM.

Turning to `Cc1ccc(S(=O)(=O)N(CCN)c2cc3c4c(c2)Oc2cccc5c2C4c2c(cccc2O3)O5)cc1`, the TGI in test [1] is over 100 µM; in test [2], over 100 µM; in test [4] it was over 100 µM; in test [5], over 100 µM; in test [6], 30.5 µM; in test [7], 66.6 µM.

Consider `Oc1ccc(Br)cc1C=Nc1c(NC2CCCCC2)oc2ccc(Br)cc12`, for which the TGI was over 100 µM in test [1]; over 100 µM in test [2]; over 100 µM in test [3]; 29.2 µM in test [4]; over 100 µM in test [5]; 28.7 µM in test [6].

As to `COc1ccc(C2(CC(C)C)CCNC2)cc1OC` (stereo not given), the TGI in test [1], in test [2], in test [3], in test [4], in test [5] and in test [6] was over 100 µM throughout. The same compound yielded a TGI in test [7] of over 100 µM.

As for `O=S(=O)(CC(Cl)c1ccccc1)c1nc2ccccc2s1` (stereo not given), the TGI stood at 40 µM in test [1]; 29.4 µM in test [2]; 51.1 µM in test [3]; 7.43 µM in test [4]; 32.9 µM in test [5]; 23.6 µM in test [6]. Moreover, in test [7], the TGI was found to be 7.2 µM.

Turning to `O=S(Cc1ccccc1)c1ccccc1Cn1cccc1` (stereo not given), the TGI in test [1], in test [2], in test [3], in test [4], in test [5] and in test [6] was over 100 µM in each case. In addition, the TGI in test [7] was over 100 µM.

Regarding `CCCC(=O)OCC1OC(n2cc(F)c(=O)[nH]c2=O)C(F)C1O` (stereo not given), the TGI in test [1], in test [2], in test [3], in test [4], in test [5] and in test [6] was over 100 µM in each case. Moreover, the TGI in test [7] is over 100 µM.

For `COc1ccccc1NC1Oc2cc3c(cc2C(c2cc(OC)c(OC)c(OC)c2)C1C)OCO3` (stereo not given), the TGI is over 60.9 µM in test [1]; 43.8 µM in test [2]; over 78.5 µM in test [3]; 12.5 µM in test [4]; over 31.1 µM in test [5]; over 33.1 µM in test [6]. Also, the TGI in test [7] was over 100 µM.

Take `CC(C(=O)NCNC(=O)c1ccccc1)C(=O)Nc1ccccc1` (stereo not given): the TGI in test [1], in test [2], in test [5], in test [6] and in test [7] was over 100 µM each time.

`Cc1cc(C)n(-c2nc(-n3nc(C)cc3C)nc(-n3nc(C)cc3C)n2)n1`: the TGI in test [1], in test [2], in test [3], in test [4], in test [5] and in test [6] was over 100 µM throughout. Besides, the TGI in test [7] is over 100 µM.

In the case of `CC1(C)CN(CC(=O)O)CC(Cc2ccc(OCC(=O)O)cc2)N(CC(=O)O)CC(C)(C)SS1` (stereo not given), the TGI in test [1], in test [2], in test [3], in test [4], in test [5] and in test [6] was over 100 µM in each case. The compound also yielded a TGI in test [7] of over 100 µM.

Consider `CN(C)c1ccc(N=C2N=C(Nc3ccccc3)C(=Nc3ccccc3)S2)cc1`, for which the TGI in test [1], in test [3], in test [5], in test [6] and in test [7] was over 100 µM in each case.

Regarding `CC(=O)C1C(=O)C(=O)N(c2ccc([N+](=O)[O-])cc2[N+](=O)[O-])C1=O` (stereo not given), the TGI in test [1], in test [2], in test [3], in test [5], in test [6] and in test [7] was over 100 µM in each case.

In the case of `O=C(/C=C/c1ccc([N+](=O)[O-])cc1)N1CCN(CCOC(c2ccc(F)cc2)c2ccc(F)cc2)CC1`, the TGI is over 100 µM in test [1]; 96.4 µM in test [2]; over 100 µM in test [3]; over 100 µM in test [4]; over 100 µM in test [5]; over 100 µM in test [6]. The TGI in test [7] was over 100 µM.

Regarding `NC1CCN(c2nc3ccccc3c3c2CCCC3)CC1`, the TGI in test [1] turned out to be 3.8 µM; in test [2] it was 12.2 µM; in test [3], 4.63 µM; in test [4], 6.58 µM; in test [5], 27.1 µM; in test [6], 14.4 µM. This compound came in with a TGI in test [7] of 3.84 µM.

As for `Cc1cccc2c(N)c3cccc(C(=O)NCC[N+](C)(C)Cc4ccccc4[N+](=O)[O-])c3nc12`, the TGI in test [1] is over 19.7 µM; in test [2] it was over 28.3 µM; in test [3] it was over 34.5 µM; in test [4] it was over 31.8 µM; in test [5], over 95.1 µM; in test [6], over 100 µM. This compound also registered a TGI in test [7] of over 40.3 µM.

`N#CC(O)CCOCc1ccccc1` (stereo not given): the TGI in test [1], in test [2], in test [3], in test [4], in test [5] and in test [6] was over 100 µM each time. Besides, the TGI in test [7] was over 100 µM.

Take `C/C(O)=C(/C=N/C(=S)Nc1ccccc1)C(=O)Nc1ccccc1C`: the TGI in test [1], in test [2], in test [3], in test [4], in test [5] and in test [6] was over 100 µM throughout. In addition, the TGI in test [7] was over 100 µM.

Consider `C/C(=C/CC[C@](C)(OC1OC(CO)C(O)C(O)C1O)[C@H]1CC[C@]2(C)[C@@H]1CC[C@@H]1[C@@]3(C)CC[C@H](O)C(C)(C)[C@@H]3C[C@H](O)[C@]12CO)CO` (stereo not given in full), for which the TGI in test [1], in test [2], in test [3], in test [4], in test [5] and in test [6] was over 100 µM each time. In test [7], this compound showed a TGI of over 100 µM.

For the compound `O=C(NCCCCCCCCNC(=O)Nc1cccc2ccccc12)Nc1cccc2ccccc12`, the TGI in test [1] is over 100 µM; in test [2], 47.5 µM; in test [3], 4.18 µM; in test [4], 46.7 µM; in test [6] it was over 100 µM; in test [7], over 100 µM.

For `O=C(C[C@@H]1CCCN2CCCC[C@H]12)N1c2ccccc2Sc2ccc(Cl)cc21`, the TGI in test [2] is 25.9 µM; in test [4] it was 35.2 µM; in test [6], 29.5 µM; in test [7], 17.9 µM.

With `C/C(=N\O)c1ccc(OCc2cc(C(F)(F)F)cc(C(F)(F)F)c2)cc1`, the TGI in test [2], in test [3], in test [4], in test [5], in test [6] and in test [7] was over 100 µM throughout.

Turning to `CC(C)CC(=O)CC(C)[C@]1(CCCOCc2ccccc2)C(=O)N2CCC3(C[C@@]24CCC[C@H]41)OCCO3` (stereo not given in full), the TGI in test [2], in test [3], in test [4], in test [5] and in test [7] was over 10 µM in each case.

Take `Cc1[nH]c2ncn3[nH]c(=S)nc3c2c1Cc1ccccc1`: the TGI in test [1], in test [2], in test [3], in test [5], in test [6] and in test [7] was over 100 µM each time.

On to `COC(=O)C1(Cc2ccccc2)Cc2ccccc2C1O` (stereo not given), for which the TGI in test [1], in test [2], in test [3], in test [4], in test [5] and in test [6] was over 100 µM in each case.

For `Brc1ccc(-c2[nH]c3ccccc3c2/C=N\Nc2ccc(-c3nc4ccccc4[nH]3)cc2)cc1`, the TGI in test [1] is over 100 µM; in test [2] it was over 100 µM; in test [3], over 100 µM; in test [4], over 39.2 µM; in test [5], over 100 µM; in test [7] it was over 100 µM.

`CCOC(=O)c1c(NC(=S)Nc2ccccc2)sc2c1CCN(C)C2`: the TGI in test [1], in test [2], in test [4], in test [6] and in test [7] was over 100 µM each time.

Take `O=c1[nH]c2nc3ccccc3c(=O)n2/c1=C/c1ccccc1`: the TGI in test [1], in test [2], in test [3], in test [5], in test [6] and in test [7] was over 100 µM each time.

As to `CCOC(=O)C1CCCc2sc(N)c(C#N)c21` (stereo not given), the TGI in test [1], in test [2], in test [4], in test [6] and in test [7] was over 100 µM in each case.

`Fc1cc2nc3n(c2cc1F)C(c1c(F)cccc1F)SC3` (stereo not given): the TGI in test [1] is over 100 µM; in test [2], over 100 µM; in test [3], over 100 µM; in test [5], over 100 µM; in test [6], 54.1 µM; in test [7] it was 81.5 µM.

For `CSc1nc(-c2ccccc2)[nH]c(=O)n1`, the TGI in test [1], in test [2], in test [3], in test [5], in test [6] and in test [7] was over 100 µM each time.

In the case of `Cc1ccc(S(=O)(=O)C2=Cc3ccccc3C2(O)c2ccccc2)cc1` (stereo not given), the TGI was 76.5 µM in test [4], 79.2 µM in test [5], over 100 µM in test [6] and 31 µM in test [7].

Consider `N#Cc1ccc(C2ON=C(c3ccccc3)N2C23CC4CC(CC(C4)C2)C3)cc1` (stereo not given), for which the TGI in test [1], in test [3], in test [4], in test [5], in test [6] and in test [7] was over 10 µM each time.

In the case of `O=C1c2ccccc2CC12Cc1cc3c(cc1C2)CCC3`, the TGI in test [2] was over 100 µM; in test [3], over 100 µM; in test [4] it was over 100 µM; in test [5], over 100 µM; in test [6], over 100 µM; in test [7] it was 94.1 µM.

Take `CCOC(=O)C(=[N+]=[N-])C(=O)CSC#N`: the TGI in test [1], in test [2], in test [3], in test [5], in test [6] and in test [7] was over 100 µM in each case.

As to `COC(=O)CN(CC(=O)NCCNC(=O)OC(C)(C)C)C1CCCCC1N(CC(=O)OC)CC(=O)OC` (stereo not given), the TGI in test [1], in test [2], in test [4], in test [5] and in test [6] was over 100 µM in each case.

Take `Nc1nc(Cl)c(N)c(NCC2(CO)CCC(OCc3ccccc3)C2)n1` (stereo not given): the TGI in test [1], in test [2], in test [3], in test [4], in test [5] and in test [6] was over 100 µM in each case.

Regarding `CC(=O)NC1=NC(=O)/C(=C/c2ccccc2Cl)N1C`, the TGI in test [1], in test [2], in test [3], in test [5], in test [6] and in test [7] was over 100 µM each time.

Turning to `Cc1cccc(N=Nc2c(C)nn(C(=O)CC(=O)Nc3ccc(Cl)cc3)c2C)c1`, the TGI in test [1], in test [2], in test [3], in test [5], in test [6] and in test [7] was over 100 µM throughout.
